Results on 29 compounds are retold here after patent US10428083B2, “Heterocyclylmethyl-thienouracile as antagonists of the adenosine-A2B-receptor” (BAYER PHARMA AKTIENGESELLSCHAFT, priority 2015, dated 2019).

Chain of human adenosine A2b receptor (P29275 whole entry): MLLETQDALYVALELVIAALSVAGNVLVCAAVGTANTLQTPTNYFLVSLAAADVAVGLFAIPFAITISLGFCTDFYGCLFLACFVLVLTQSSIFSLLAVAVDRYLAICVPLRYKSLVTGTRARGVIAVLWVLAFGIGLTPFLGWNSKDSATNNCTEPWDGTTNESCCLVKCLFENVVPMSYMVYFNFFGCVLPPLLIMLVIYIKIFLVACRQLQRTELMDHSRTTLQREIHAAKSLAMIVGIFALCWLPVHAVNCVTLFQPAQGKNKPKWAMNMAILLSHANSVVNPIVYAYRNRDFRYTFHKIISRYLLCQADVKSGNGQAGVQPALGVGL

This experiment deals with human adenosine A2b receptor (Homo sapiens (Human), UniProt P29275). Description: Cellular in vitro reporter gene test for A2b receptor activity (CHO-K1, CRE-luciferase, NECA stimulation). The class given is cell-based. The conditions noted are these: recombinant CHO-K1 cell line, CRE-luciferase reporter, antagonism of EC50 concentration of NECA; in some cases means of several determinations, rounded to two significant figures; read-out: A2b receptor IC50. On the procedure:
B-1. Cellular In Vitro Tests for Determining A2b Receptor Activity and Adenosine Receptor Selectivity
In the case of the A2a and A2b cell lines, this is a minimal promoter having a plurality of cAMP-responsive elements (CRE). Stimulation of the Gs-coupled A2b or A2a receptors by NECA ultimately leads, via formation of cAMP, to CRE-dependent induction of luciferase expression, which is detected 3 hours after the start of the incubation with NECA using a detection solution in a suitable luminometer. For testing the antagonists, initially, in a pre-experiment, the concentration of NECA which, at the test day in question, results in half-maximum stimulation of luciferase expression (EC50 concentration) is determined. By joint incubation of this EC50 concentration of NECA with the substances to be tested, it is possible to determine their antagonistic activity.
One may read the IC50 as the concentration needed to halve the response being measured. Consider `Cc1c(CN2CCNC2=S)sc2c1c(=O)n(CC(F)(F)F)c(=O)n2CC1COC1` [Example 158, 5-Methyl-1-(oxetan-3-ylmethyl)-6-[(2-thioxoimidazolidin-1-yl)methyl]-3-(2,2,2-trifluoroethyl)thieno[2,3-d]pyrimidine-2,4(1H,3H)-dione], for which the half-inhibitory concentration (IC50) turned out to be 5.5 nM.
The same measure for `Cc1c(CN2CCNC2=O)sc2c1c(=O)n(CC(C)C)c(=O)n2CC1CCCO1` (single isomer, unassigned) [Example 197, 3-Isobutyl-5-methyl-6-[(2-oxoimidazolidin-1-yl)methyl]-1-(tetrahydrofuran-2-ylmethyl)thieno[2,3-d]pyrimidine-2,4(1H,3H)-dione]: 18 nM.
Take `COCCn1c(=O)n(CCc2ccccc2)c(=O)c2c(C)c(CN3CCOCC3=O)sc21` [Example 13, 1-(2-Methoxyethyl)-5-methyl-6-[(3-oxomorpholin-4-yl)methyl]-3-(2-phenylethyl)thieno[2,3-d]pyrimidine-2,4(1H,3H)-dione]: the IC50 was found to be 17 nM.
The same measure for `CCn1c(=O)c2c(C)c(CN3CCN(C)C3=O)sc2n(CCC(F)(F)F)c1=O` [Example 103, 3-Ethyl-5-methyl-6-[(3-methyl-2-oxoimidazolidin-1-yl)methyl]-1-(3,3,3-trifluoropropyl)thieno[2,3-d]pyrimidine-2,4(1H,3H)-dione]: 3.5 nM; for `Cc1c(CN2CCNC2=NC#N)sc2c1c(=O)n(C(C)C)c(=O)n2CCC(F)(F)F` [Example 262, [1-{[3-Isopropyl-5-methyl-2,4-dioxo-1-(3,3,3-trifluoropropyl)-1,2,3,4-tetrahydrothieno[2,3-d]pyrimidin-6-yl]methyl}imidazolidin-2-ylidene]cyanamide]: 2.3 nM.
The same measure for `Cc1c(CN2CCNC2=O)sc2c1c(=O)n(CC(C)(C)C)c(=O)n2CC1CCCO1` (racemic) [Example 406, 3-(2,2-Dimethylpropyl)-5-methyl-6-[(2-oxoimidazolidin-1-yl)methyl]-1-(tetrahydrofuran-2-ylmethyl)thieno[2,3-d]pyrimidine-2,4(1H,3H)-dione]: 29 nM; for `CCn1c(=O)c2c(C)c(CN3CCN(C(C)=O)C3=O)sc2n(CCOC)c1=O` [Example 104, 6-[(3-Acetyl-2-oxoimidazolidin-1-yl)methyl]-3-ethyl-1-(2-methoxyethyl)-5-methylthieno[2,3-d]pyrimidine-2,4(1H,3H)-dione]: 120 nM; for `COCCn1c(=O)n(CC(C)OC)c(=O)c2c(C)c(CN3CCNC3=O)sc21` (racemic) [Example 99, 1-(2-Methoxyethyl)-3-(2-methoxypropyl)-5-methyl-6-[(2-oxoimidazolidin-1-yl)methyl]thieno[2,3-d]pyrimidine-2,4(1H,3H)-dione]: 17 nM.
The same measure for `Cc1c(CN2CCNC2=NC#N)sc2c1c(=O)n(C(C)C)c(=O)n2CC1CCO1` (racemic) [Example 264, [1-{[3-Isopropyl-5-methyl-1-(oxetan-2-ylmethyl)-2,4-dioxo-1,2,3,4-tetrahydrothieno[2,3-d]pyrimidin-6-yl]methyl}imidazolidin-2-ylidene]cyanamide]: 3.1 nM; for `CCn1c(=O)c2c(C)c(CN3CCNC3=S)sc2n(CF)c1=O` [Example 292, 3-Ethyl-1-(fluoromethyl)-5-methyl-6-[(2-thioxoimidazolidin-1-yl)methyl]thieno[2,3-d]pyrimidine-2,4(1H,3H)-dione]: 8.3 nM.
On to `CCn1c(=O)c2c(C)c(CN3CCNC3=S)sc2n(CCC(F)(F)F)c1=O` [Example 28, 3-Ethyl-5-methyl-6-[(2-thioxoimidazolidin-1-yl)methyl]-1-(3,3,3-trifluoropropyl)thieno[2,3-d]pyrimidine-2,4(1H,3H)-dione], for which the IC50 was 1.9 nM.
In the case of `Cc1c(CN2CCNC(=O)C2=O)sc2c1c(=O)n(C(C)C)c(=O)n2CC1CCO1` (racemic) [Example 397, 6-[(2,3-Dioxopiperazin-1-yl)methyl]-3-isopropyl-5-methyl-1-(oxetan-2-ylmethyl)thieno[2,3-d]pyrimidine-2,4(1H,3H)-dione], the concentration for half-maximal inhibition (IC50) is 120 nM.
The same measure for `Cc1c(CN2CCNC(=O)C2=O)sc2c1c(=O)n(C(C)C)c(=O)n2CC1CCO1` (single isomer, unassigned) [Example 399, 6-[(2,3-Dioxopiperazin-1-yl)methyl]-3-isopropyl-5-methyl-1-(oxetan-2-ylmethyl)thieno[2,3-d]pyrimidine-2,4(1H,3H)-dione]: 26 nM; for `CCOCCn1c(=O)c2c(C)c(CN3CCNC3=S)sc2n(CCOC)c1=O` [Example 302, 3-(2-Ethoxyethyl)-1-(2-methoxyethyl)-5-methyl-6-[(2-thioxoimidazolidin-1-yl)methyl]thieno[2,3-d]pyrimidine-2,4(1H,3H)-dione]: 14 nM; for `Cc1c(CN2CCNC2=O)sc2c1c(=O)n(C(C)C)c(=O)n2C` [Example 312, 3-Isopropyl-1,5-dimethyl-6-[(2-oxoimidazolidin-1-yl)methyl]thieno[2,3-d]pyrimidine-2,4(1H,3H)-dione]: 22 nM.
The same measure for `CCn1c(=O)c2c(C)c(CN3CCNC3=O)sc2n(CF)c1=O` [Example 307, 3-Ethyl-1-(fluoromethyl)-5-methyl-6-[(2-oxoimidazolidin-1-yl)methyl]thieno[2,3-d]pyrimidine-2,4(1H,3H)-dione]: 8.1 nM.
With `Cc1c(CN2CCNC2=O)sc2c1c(=O)n(CC(F)(F)F)c(=O)n2CCC(F)(F)F` [Example 204, 5-Methyl-6-[(2-oxoimidazolidin-1-yl)methyl]-3-(2,2,2-trifluoroethyl)-1-(3,3,3-trifluoropropyl)thieno[2,3-d]pyrimidine-2,4(1H,3H)-dione], the IC50 stood at 1.1 nM.
The same measure for `CCOCCn1c(=O)n(CC(C)C)c(=O)c2c(C)c(CN3CCNC(=O)C3=O)sc21` [Example 271, 6-[(2,3-Dioxopiperazin-1-yl)methyl]-1-(2-ethoxyethyl)-3-isobutyl-5-methylthieno[2,3-d]pyrimidine-2,4(1H,3H)-dione]: 47 nM.
`Cc1c(Cn2cc[nH]c2=O)sc2c1c(=O)n(C(C)C)c(=O)n2CCC(F)(F)F` [Example 245, 3-Isopropyl-5-methyl-6-[(2-oxo-2,3-dihydro-1H-imidazol-1-yl)methyl]-1-(3,3,3-trifluoropropyl)thieno[2,3-d]pyrimidine-2,4(1H,3H)-dione]: the IC50 was found to be 2.1 nM.
For `COCCn1c(=O)c2c(C)c(CN3CCNC3=NC#N)sc2n(CC2CCCO2)c1=O` (single isomer, unassigned) [Example 368, [1-{[3-(2-Methoxyethyl)-5-methyl-2,4-dioxo-1-(tetrahydrofuran-2-ylmethyl)-1,2,3,4-tetrahydrothieno[2,3-d]pyrimidin-6-yl]methyl}imidazolidin-2-ylidene]cyanamide], the IC50 amounted to 82 nM.
For `CCOCCn1c(=O)n(CC(F)(F)F)c(=O)c2c(C)c(CN3CCNC3=S)sc21` [Example 153, 1-(2-Ethoxyethyl)-5-methyl-6-[(2-thioxoimidazolidin-1-yl)methyl]-3-(2,2,2-trifluoroethyl)thieno[2,3-d]pyrimidine-2,4(1H,3H)-dione], the IC50 is 6.4 nM.
The same measure for `Cc1c(CN2CCNC2=O)sc2c1c(=O)n(CC(C)(C)C)c(=O)n2CC1CCCO1` (single isomer, unassigned) [Example 407, 3-(2,2-Dimethylpropyl)-5-methyl-6-[(2-oxoimidazolidin-1-yl)methyl]-1-(tetrahydrofuran-2-ylmethyl)thieno[2,3-d]pyrimidine-2,4(1H,3H)-dione]: 32 nM; for `Cc1c(CN2CCNC(=O)C2=O)sc2c1c(=O)n(CC(F)F)c(=O)n2C` [Example 275, 3-(2,2-Difluoroethyl)-6-[(2,3-dioxopiperazin-1-yl)methyl]-1,5-dimethylthieno[2,3-d]pyrimidine-2,4(1H,3H)-dione]: 76 nM.
As for `Cc1c(CN2CCNC2=O)sc2c1c(=O)n(CC(F)(F)F)c(=O)n2CCCF` [Example 93, 1-(3-Fluoropropyl)-5-methyl-6-[(2-oxoimidazolidin-1-yl)methyl]-3-(2,2,2-trifluoroethyl)thieno[2,3-d]pyrimidine-2,4(1H,3H)-dione], the IC50 worked out at 11 nM.
For `CCn1c(=O)c2c(C)c(Cn3c(C)c[nH]c3=O)sc2n(CCOC)c1=O` [Example 252], the IC50 came out at 4.1 nM.
The same measure for `COCCn1c(=O)n(CC(C)C)c(=O)c2c(C)c(CN3CCNC3=O)sc21` [Example 89, 3-Isobutyl-1-(2-methoxyethyl)-5-methyl-6-[(2-oxoimidazolidin-1-yl)methyl]thieno[2,3-d]pyrimidine-2,4(1H,3H)-dione]: 8.7 nM; for `Cc1c(CN2CCNC2=O)sc2c1c(=O)n(CC(C)C)c(=O)n2CC1CCO1` (single isomer, unassigned) [Example 195, 3-Isobutyl-5-methyl-1-(oxetan-2-ylmethyl)-6-[(2-oxoimidazolidin-1-yl)methyl]thieno[2,3-d]pyrimidine-2,4(1H,3H)-dione]: 41 nM; for `Cc1c(Cn2cc[nH]c2=O)sc2c1c(=O)n(C(C)C)c(=O)n2CC1CCCO1` (single isomer, unassigned) [Example 249, 3-Isopropyl-5-methyl-6-[(2-oxo-2,3-dihydro-1H-imidazol-1-yl)methyl]-1-(tetrahydrofuran-2-ylmethyl)thieno[2,3-d]pyrimidine-2,4(1H,3H)-dione]: 41 nM.
The same measure for `COCCn1c(=O)c2c(C)c(Cn3nc[nH]c3=O)sc2n(CCC(F)(F)F)c1=O` [Example 439, 3-(2-Methoxyethyl)-5-methyl-6-[(5-oxo-4,5-dihydro-1H-1,2,4-triazol-1-yl)methyl]-1-(3,3,3-trifluoropropyl)thieno[2,3-d]pyrimidine-2,4(1H,3H)-dione]: 180 nM.
